# According to ChEMBL document CHEMBL3885861, “Open TG-GATES”:
# Organism: Rattus norvegicus
# Assay: Open TG-GATES - Regimen: Single
# Type: toxicity, organism-based, Sprague-Dawley
# Parameters: regimen Single, gender Male, age 6 weeks
# Settings: in vivo, po, 24 h, route gavage; for Bas / Eos / Hb / Ht / Lym / MCH / MCHC / MCV / Mono / Neu / Plat / RBC / Ret / WBC: tissue Blood; for KIDNEY_L / KIDNEY_R / KIDNEY_TOTAL: tissue Kidney; for LIVER: tissue Liver; for A/G / ALP / ALT / AST / BUN / CRE / Ca / Cl / DBIL / GLC / IP / K / Na / PL / RALB / TBIL / TC / TG / TP / gamma-GTP: tissue Plasma
structure (smiles),measurement,setting,value
COc1cc2c(c3oc(=O)c4c(c13)CCC4=O)[C@@H]1C=CO[C@@H]1O2 [AFLATOXIN],TERMINAL_BW,"0 mg/kg, dose level Control",227.2 g
same,Bas,"0 mg/kg, dose level Control",0%
same,Eos,"0 mg/kg, dose level Control",1%
same,Hb,"0 mg/kg, dose level Control",12.7 g/dL
same,Ht,"0 mg/kg, dose level Control",37.5%
same,Lym,"0 mg/kg, dose level Control",79%
same,MCH,"0 mg/kg, dose level Control",20.7 pg
same,MCHC,"0 mg/kg, dose level Control",33.9%
same,MCV,"0 mg/kg, dose level Control",60.9 fL
same,Mono,"0 mg/kg, dose level Control",2.8%
same,Neu,"0 mg/kg, dose level Control",16.2%
same,Plat,"0 mg/kg, dose level Control",118.1 x10_4/uL
same,RBC,"0 mg/kg, dose level Control",616 x10_4/ul
same,Ret,"0 mg/kg, dose level Control",8.7%
same,WBC,"0 mg/kg, dose level Control",76.8 x10_2/uL
same,KIDNEY_L,"0 mg/kg, dose level Control",1 g
same,KIDNEY_R,"0 mg/kg, dose level Control",1 g
same,KIDNEY_TOTAL,"0 mg/kg, dose level Control",2.1 g
same,LIVER,"0 mg/kg, dose level Control",10.9 g
same,A/G,"0 mg/kg, dose level Control",1
same,ALP,"0 mg/kg, dose level Control",1775.8 IU/L
same,ALT,"0 mg/kg, dose level Control",40 IU/L
same,AST,"0 mg/kg, dose level Control",72.2 IU/L
same,BUN,"0 mg/kg, dose level Control",16.5 mg/dL
same,CRE,"0 mg/kg, dose level Control",0.2 mg/dL
same,Ca,"0 mg/kg, dose level Control",10.8 mg/dL
same,Cl,"0 mg/kg, dose level Control",104.1 meq/L
same,DBIL,"0 mg/kg, dose level Control",0.002 mg/dL
same,GLC,"0 mg/kg, dose level Control",189.4 mg/dL
same,IP,"0 mg/kg, dose level Control",7 mg/dL
same,K,"0 mg/kg, dose level Control",4.5 meq/L
same,Na,"0 mg/kg, dose level Control",139.2 meq/L
same,PL,"0 mg/kg, dose level Control",153.4 mg/dL
same,RALB,"0 mg/kg, dose level Control",2.8 g/dL
same,TBIL,"0 mg/kg, dose level Control",0 mg/dL
same,TC,"0 mg/kg, dose level Control",76.2 mg/dL
same,TG,"0 mg/kg, dose level Control",141.9 mg/dL
same,TP,"0 mg/kg, dose level Control",5.7 g/dL
same,gamma-GTP,"0 mg/kg, dose level Control",0.8 IU/L
same,TERMINAL_BW,"1 mg/kg, dose level Low",220.4 g
same,Bas,"1 mg/kg, dose level Low",0%
same,Eos,"1 mg/kg, dose level Low",0.8%
same,Hb,"1 mg/kg, dose level Low",12.8 g/dL
same,Ht,"1 mg/kg, dose level Low",37.6%
same,Lym,"1 mg/kg, dose level Low",74.6%
same,MCH,"1 mg/kg, dose level Low",20.5 pg
same,MCHC,"1 mg/kg, dose level Low",34.2%
same,MCV,"1 mg/kg, dose level Low",60 fL
same,Mono,"1 mg/kg, dose level Low",4.8%
same,Neu,"1 mg/kg, dose level Low",19.2%
same,Plat,"1 mg/kg, dose level Low",127.7 x10_4/uL
same,RBC,"1 mg/kg, dose level Low",627.4 x10_4/ul
same,Ret,"1 mg/kg, dose level Low",8.8%
same,WBC,"1 mg/kg, dose level Low",97.6 x10_2/uL
same,KIDNEY_L,"1 mg/kg, dose level Low",1 g
same,KIDNEY_R,"1 mg/kg, dose level Low",1 g
same,KIDNEY_TOTAL,"1 mg/kg, dose level Low",2 g
same,LIVER,"1 mg/kg, dose level Low",10.2 g
same,A/G,"1 mg/kg, dose level Low",1
same,ALP,"1 mg/kg, dose level Low",1769.4 IU/L
same,ALT,"1 mg/kg, dose level Low",59.6 IU/L
same,AST,"1 mg/kg, dose level Low",97 IU/L
same,BUN,"1 mg/kg, dose level Low",15.7 mg/dL
same,CRE,"1 mg/kg, dose level Low",0.2 mg/dL
same,Ca,"1 mg/kg, dose level Low",10.7 mg/dL
same,Cl,"1 mg/kg, dose level Low",103.9 meq/L
same,DBIL,"1 mg/kg, dose level Low",0.002 mg/dL
same,GLC,"1 mg/kg, dose level Low",171.4 mg/dL
same,IP,"1 mg/kg, dose level Low",7.5 mg/dL
same,K,"1 mg/kg, dose level Low",4.4 meq/L
same,Na,"1 mg/kg, dose level Low",138.8 meq/L
same,PL,"1 mg/kg, dose level Low",150.2 mg/dL
same,RALB,"1 mg/kg, dose level Low",2.8 g/dL
same,TBIL,"1 mg/kg, dose level Low",0 mg/dL
same,TC,"1 mg/kg, dose level Low",84.4 mg/dL
same,TG,"1 mg/kg, dose level Low",93.8 mg/dL
same,TP,"1 mg/kg, dose level Low",5.7 g/dL
same,gamma-GTP,"1 mg/kg, dose level Low",1 IU/L
same,TERMINAL_BW,"3 mg/kg, dose level Middle",219.9 g
same,Bas,"3 mg/kg, dose level Middle",0%
same,Eos,"3 mg/kg, dose level Middle",0.4%
same,Hb,"3 mg/kg, dose level Middle",13.4 g/dL
same,Ht,"3 mg/kg, dose level Middle",39.5%
same,Lym,"3 mg/kg, dose level Middle",74.2%
same,MCH,"3 mg/kg, dose level Middle",20.1 pg
same,MCHC,"3 mg/kg, dose level Middle",33.8%
same,MCV,"3 mg/kg, dose level Middle",59.5 fL
same,Mono,"3 mg/kg, dose level Middle",5.2%
same,Neu,"3 mg/kg, dose level Middle",18.6%
same,Plat,"3 mg/kg, dose level Middle",114.1 x10_4/uL
same,RBC,"3 mg/kg, dose level Middle",663 x10_4/ul
same,Ret,"3 mg/kg, dose level Middle",8.5%
same,WBC,"3 mg/kg, dose level Middle",84.9 x10_2/uL
same,KIDNEY_L,"3 mg/kg, dose level Middle",0.9 g
same,KIDNEY_R,"3 mg/kg, dose level Middle",0.9 g
same,KIDNEY_TOTAL,"3 mg/kg, dose level Middle",1.9 g
same,LIVER,"3 mg/kg, dose level Middle",10.1 g
same,A/G,"3 mg/kg, dose level Middle",1
same,ALP,"3 mg/kg, dose level Middle",1736.6 IU/L
same,ALT,"3 mg/kg, dose level Middle",135 IU/L
same,AST,"3 mg/kg, dose level Middle",232 IU/L
same,BUN,"3 mg/kg, dose level Middle",15.8 mg/dL
same,CRE,"3 mg/kg, dose level Middle",0.2 mg/dL
same,Ca,"3 mg/kg, dose level Middle",10.7 mg/dL
same,Cl,"3 mg/kg, dose level Middle",105.1 meq/L
same,DBIL,"3 mg/kg, dose level Middle",0.012 mg/dL
same,GLC,"3 mg/kg, dose level Middle",167.8 mg/dL
same,IP,"3 mg/kg, dose level Middle",8.1 mg/dL
same,K,"3 mg/kg, dose level Middle",4.4 meq/L
same,Na,"3 mg/kg, dose level Middle",139.3 meq/L
same,PL,"3 mg/kg, dose level Middle",168 mg/dL
same,RALB,"3 mg/kg, dose level Middle",2.7 g/dL
same,TBIL,"3 mg/kg, dose level Middle",0.01 mg/dL
same,TC,"3 mg/kg, dose level Middle",84.4 mg/dL
same,TG,"3 mg/kg, dose level Middle",112.4 mg/dL
same,TP,"3 mg/kg, dose level Middle",5.5 g/dL
same,gamma-GTP,"3 mg/kg, dose level Middle",1.5 IU/L
same,TERMINAL_BW,"10 mg/kg, dose level High",214.9 g
same,Bas,"10 mg/kg, dose level High",0%
same,Eos,"10 mg/kg, dose level High",0.6%
same,Hb,"10 mg/kg, dose level High",14 g/dL
same,Ht,"10 mg/kg, dose level High",40.8%
same,Lym,"10 mg/kg, dose level High",47.8%
same,MCH,"10 mg/kg, dose level High",20.7 pg
same,MCHC,"10 mg/kg, dose level High",34.3%
same,MCV,"10 mg/kg, dose level High",60.5 fL
same,Mono,"10 mg/kg, dose level High",2.8%
same,Neu,"10 mg/kg, dose level High",47%
same,Plat,"10 mg/kg, dose level High",104.8 x10_4/uL
same,RBC,"10 mg/kg, dose level High",674.6 x10_4/ul
same,Ret,"10 mg/kg, dose level High",8.4%
same,WBC,"10 mg/kg, dose level High",101.9 x10_2/uL
same,KIDNEY_L,"10 mg/kg, dose level High",1 g
same,KIDNEY_R,"10 mg/kg, dose level High",1 g
same,KIDNEY_TOTAL,"10 mg/kg, dose level High",2 g
same,LIVER,"10 mg/kg, dose level High",9 g
same,A/G,"10 mg/kg, dose level High",1
same,ALP,"10 mg/kg, dose level High",2013.2 IU/L
same,ALT,"10 mg/kg, dose level High",292.6 IU/L
same,AST,"10 mg/kg, dose level High",630.8 IU/L
same,BUN,"10 mg/kg, dose level High",19.7 mg/dL
same,CRE,"10 mg/kg, dose level High",0.2 mg/dL
same,Ca,"10 mg/kg, dose level High",10.7 mg/dL
same,Cl,"10 mg/kg, dose level High",103.7 meq/L
same,DBIL,"10 mg/kg, dose level High",0.094 mg/dL
same,GLC,"10 mg/kg, dose level High",153.2 mg/dL
same,IP,"10 mg/kg, dose level High",9.1 mg/dL
same,K,"10 mg/kg, dose level High",4.1 meq/L
same,Na,"10 mg/kg, dose level High",138.9 meq/L
same,PL,"10 mg/kg, dose level High",158.2 mg/dL
same,RALB,"10 mg/kg, dose level High",2.8 g/dL
same,TBIL,"10 mg/kg, dose level High",0.1 mg/dL
same,TC,"10 mg/kg, dose level High",87.4 mg/dL
same,TG,"10 mg/kg, dose level High",32.9 mg/dL
same,TP,"10 mg/kg, dose level High",5.6 g/dL
same,gamma-GTP,"10 mg/kg, dose level High",2.9 IU/L
